Test results from patent publication US20060074244A1, “Pyridinyl substituted (1,2,3,)triazoles as inhibitors of the tgf-beta signalling pathway” (priority 2002, published 2006).

Columns and labels:
[1] = tested on: TGF-β signalling (PAI-1 promoter-luciferase in HepG2 cells); experiment: Cellular transcriptional assay (PAI-1 promoter luciferase reporter)
Experimental: The assay was performed in HepG2 cells stably transfected with the PAI-1 promoter (known to be a strong TGF-β responsive promoter) linked to a luciferase (firefly) reporter gene. The compounds were selected on their ability to inhibit luciferase activity in cells exposed to TGF-β. In addition, cells were transfected with a second luciferase (Renilla) gene which was not driven by a TGF-13 responsive promoter and was used as a toxicity control.
96 well microplates were seeded, using a multidrop apparatus, with the stably transfected cell line at a concentration of 35000 cells per well in 200 μl of serum-containing medium. These plates were placed in a cell incubator.
18 to 24 hours later (Day 2), cell-incubation procedure was launched. […] Each well contained only one candidate compound and its effect on the PAI-1 promoter was monitored.
Columns 11 and 12 were employed as controls. […] Column 11 was used to determine the ‘reference TGF-β induced firefly luciferase value’ against which values measured in the test wells (to quantify inhibitory activity) were compared. […]
12 to 18 hours later (day 3), the luciferase quantification procedure was launched. […] Following agitation (15 to 30 mins), luciferase activities of the plates were read in a dual-injector luminometer (BMG lumistar). […]

[2] = target: T1, recombinant GST-ALK5 (residues 198-503) (Homo sapiens, UniProt P36897); experiment: Alk5 fluorescence polarization assay; assay type: binding; conditions: displacement of rhodamine green-labelled ligand, 10 nM ALK5; read-out: ALK5 receptor modulator activity (IC50)
T1 construct: assays using recombinant GST-ALK5 (residues 198-503)
T1 sequence (P36897 198-503): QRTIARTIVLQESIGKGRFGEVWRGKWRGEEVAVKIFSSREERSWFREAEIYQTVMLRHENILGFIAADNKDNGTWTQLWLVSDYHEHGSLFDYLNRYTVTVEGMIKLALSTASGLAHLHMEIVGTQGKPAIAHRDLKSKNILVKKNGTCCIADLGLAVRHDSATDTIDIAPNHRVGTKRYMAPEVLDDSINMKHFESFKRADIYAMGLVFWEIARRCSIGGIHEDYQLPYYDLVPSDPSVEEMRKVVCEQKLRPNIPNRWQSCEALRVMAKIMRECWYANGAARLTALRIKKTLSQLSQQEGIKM
Experimental: Assay 2 (Alk5 Fluorescence Polarization Assay)
Kinase inhibitor compounds conjugated to fluorophores, can be used as fluorescent ligands to monitor ATP competitive binding of other compounds to a given kinase. The increase in depolarization of plane polarized light, caused by release of the bound ligand into solution, is measured as a polarization/anisotropy value. This protocol details the use of a rhodamine green-labelled ligand for assays using recombinant GST-ALK5 (residues 198-503).
Assay buffer components: 62.5 mM Hepes pH 7.5 (Sigma H-4034), 1 mM DTT (Sigma D-0632), 12.5 mM MgCl2 (Sigma M-9272), 1.25 mM CHAPS (Sigma C-3023). […]
ALK5 was added to assay buffer containing the above components and 1 nM of the rhodamine green-labelled ligand so that the final ALK5 concentration was 10 nM based on active site titration of the enzyme. […] The plates were read immediately on a LJL Acquest fluorescence reader (Molecular Devices, serial number AQ1048) with excitation, emission, and dichroic filters of 485 nm, 530 nm, and 505 nm, respectively. The fluorescence polarization for each well was calculated by the Acquest reader and then imported into curve fitting software for construction of concentration response curves. The normalized response was determined relative to the high controls (1 μl DMSO in column 12, rows A-D) and the low controls (1 μl of control compound in column 12, rows E-H). […]

O=C1C=CCC1 [CPO, Cyclopentenone, reference compound]
firefly and renilla luciferase activities (toxicity control) ([1]; 500 μM CPO with TGF-β, relative to TGF-β only): around 50%

Cc1cccc(-c2[nH]nnc2-c2ccnc(-c3ccc(S(C)(=O)=O)cc3)c2)n1 [Example 1, 2-(4-Methanesulfonylphenyl)-4-(5-(6-methyl)-pyridin-2-yl-3H-[1,2,3]triazol-4-yl)-pyridine]
IC50 ([1]; Homo sapiens, HepG2, read-out: TGF-β cellular activity): 413 nM
IC50 [2]: 26 nM

Cc1cccc(-c2nn[nH]c2-c2ccnc(-c3ccc(CN4CCOCC4)cc3)c2)n1 [Example 4, 4-(4-{4-[5-(6-methyl-pyridin-2-yl)-3H-[1,2,3]triazol-4-yl]-pyridin-2-yl}-benzyl)-morpholine]
melting point: 110 °C
